The source of these data is patent publication US12286437B2, “Cardiac sarcomere inhibitors” (Cytokinetics, Inc., priority 2021, dated 2025).

Data set [1] is described as follows: Dog single dose pharmacokinetics. The data set is classed as in vivo, beagle dogs. The following applies: male, beagle, plasma, IV; for Vd: read-out: Vss; for half-life: read-out: t½ (converted). As for the experimental part: Non-naïve male beagle dogs (8 months-3 years of age, body weight 8-13 kg) were used in this study. All animals for IV administration had free access to food and water; all animals for PO were fasted overnight prior to dosing and were fed approximately 6 hours after dosing. For the animals in PO group, pentagastrin (6.0 μg/kg, i.m.) was administrated 20 minutes before dosing PO formulation and 1.5 hours after the first pentagastrin dosing. The dosing volume was 0.024 mL/kg, the concentration was 250 μg/mL in DMSO/1 N NaOH/PBS. 10 mL of 0.001 N HCl was used to wash the gavage catheter for each animal. The IV dose solution was prepared in 10% DMA/50% PG/40% HPβCD solution (40% w/v aqueous HPβCD) at a concentration of 1.0 mg/mL. The oral dose suspension was prepared by suspending the compound in 0.5% HPMC/0.1% Tween 80 in distilled water at a concentration of 0.2 mg/mL. Concentrations of IV and PO doses were measured at the end of the study. PK parameters were calculated using the nominal dose values if the measured values were within 20% of the nominal values. Blood samples were collected by venipuncture of peripheral veins except the dosing vein at pre-dose, 5 15, 30 min, 1, 2, 4, 6, 8, 24 and 48 h post-dose. Blood samples were centrifuged and resultant plasma was frozen for bioanalysis. Plasma samples were stored at −80° C. before analysis. Plasma samples were analyzed for compound concentrations using the LC/MS/MS method. Briefly, a 50 μL aliquot of each plasma sample was mixed with 100 μL of acetonitrile that contained an internal standard. The mixture was vortexed and centrifuged. Ten (10) μL of the resulting solution was injected onto a reverse-phase C18 column and the resultant peaks detected on a LC/MS/MS equipped with a turbo ionspray ionization source. Sample concentrations below the limit of quantification (BLQ) were treated as zero for PK calculations. PK parameters were estimated from individual animals using noncompartmental analysis of the concentration-time data (Phoenix WinNonLin software, version 64; Pharsight, Mountain View, CA). The elimination rate constant (k) was calculated as the absolute value of the slope of the linear regression of logarithm (log) of the concentration versus time for the last three data points of the concentration-time profiles. Apparent elimination half-life (t1/2) values were calculated as ln(2)/k. Area under the concentration-time curve (AUC) values were estimated using linear trapezoidal method. AUCt values were calculated from the dosing time to the last measurable concentration. AUC∞ values were calculated as the sum of the corresponding AUCt and the ratio of the last detectable concentration divided by k. Plasma clearance (CL) was calculated from Dose/AUC∞. Mean resident time extrapolated to infinity (MRT∞) was estimated by moment analysis. Vss was calculated from MRT∞×CL. Maximum concentration (Cmax) and time to reach Cmax (tmax) were recorded as observed. As this was a cross-over study, bioavailability was calculated dAUC∞,po/dAUC∞,iv×100% where dAUC was the dose normalized AUC value from the same animal given IV and PO dose. Data for compounds tested are provided in Table D. Compounds tested were prepared in accordance with the synthetic procedures described herein.

Data set [2] is described as follows: Projected single-dose CL and Vss values in humans (allometric scaling of mouse, rat, dog, monkey IV PK). The following applies: human, projected by allometric scaling from single-dose IV PK. The method, then:
Allometric scaling for the prediction of human Clearance and Volume of Distribution was based on interspecies simple allometric scaling of mouse, rat, dog, and cynomolgus monkey intravenous pharmacokinetic parameters (Boxenbaum, J Pharmacokinet Biopharm 10:201-27, 1982). Prediction of human CL was performed by extrapolating pre-clinical species' plasma intravenous clearance. The ‘rule of exponents’ (Mahmood & Balian, Life Sci 59:579-85, 1996) was examined in this prediction, where it has been proposed that, when the exponent of simple allometry lies between […] and 0.99, a correction factor based on Maximum Life Span (MLP) of this species can be applied and, when the exponent of simple allometry is greater than 1.0, a correction factor based on Brain Weight (BrW) can be applied, or a protein binding correction can be applied when available. In a similar manner, simple allometric scaling was employed to predict human Volume of Distribution. This method has been used successfully for varied drugs (Ward & Smith, Drug Metab Dispos 32:612-19, 2004; McGinnity et al., Curr Drug Metab 8:463-79, 2007).

Data set [3] relates to Rat Cardiac Contractility. As to the kind of experiment: Echocardiography assessment of acute pharmacodynamic effect in rat cardiac contractility (fractional shortening). It counts as in vivo, Sprague Dawley rats. The following applies: oral gavage, plasma concentration vs fractional shortening, 1 and 4 h post-dose. The method, then:
Assessment of in vivo cardiac function by echocardiography was performed in male Sprague Dawley rats under isoflurane (1-3%) anesthesia. 2-D M-mode images of the left ventricle were acquired in the parasternal long-axis view before, during, and after administration of compounds. In vivo fractional shortening was determined by M-mode image analysis with the following calculation: ((End diastolic diameter−end systolic diameter)[…] end diastolic diameter×100). Three pre-dose baseline M-Mode images were taken at 1-minute intervals prior to compound administration. Compounds were formulated in a 0.5% hydroxypropyl methylcellulose 2910 (HPMC 2910): 0.1% Tween 80 suspension and delivered as a single dose (5 mL/kg) by oral gavage. At one and four hours post-dose, rats were lightly anesthetized for M-mode echocardiography measurement. Concurrent with echocardiography measurements, blood samples were taken to determine the corresponding compound plasma concentrations. The resulting plasma concentrations were used to estimate the IC50 and IC10 values, which is the concentration at which fractional shortening is 50% and 10% of the pre-dose baseline contractility, respectively.

One may read the clearance as the rate of elimination divided by the concentration. In general, IC10 refers to the concentration needed for an effect of 10%. By IC50 is commonly meant the concentration needed to halve the response being measured. `CC(C)N1CC(=O)N(Cc2ccc(C(F)(F)F)cc2)C2(CN(c3cccnn3)C2)C1=O` [Compound 13, 8-isopropyl-2-(pyridazin-3-yl)-5-(4-(trifluoromethyl)benzyl)-2,5,8-triazaspiro[3.5]nonane-6,9-dione]: in data set [1], the clearance was 7.45 mL/min/kg, the Vd worked out at 2.85 L/kg and the half-life was 386 min. In data set [2], the “Projected CL” value is reported as 4.66 mL/min/kg, the “Projected Vss” value worked out at 3.43 L/kg and the “Projected t½” value is reported as 8.51 h. Besides, in data set [3], the IC10 stood at 0.317 µM and the IC50 came to 1170 nM.

In the case of `C[C@H]1CC[C@H](N2CC(=O)N(Cc3ccc(Cl)cc3)C3(CN(C(N)=O)C3)C2=O)CC1` [Compound 18, 5-(4-chlorobenzyl)-8-((1r,4r)-4-methylcyclohexyl)-6,9-dioxo-2,5,8-triazaspiro[3.5]nonane-2-carboxamide], in data set [1], the clearance stood at 18.8 mL/min/kg, the Vd stood at 5.73 L/kg and the half-life is 348 min. In addition, in data set [2], the “Projected CL” value is 3.3 mL/min/kg, the “Projected Vss” value worked out at 7.1 L/kg and the “Projected t½” value is given as 25 h. Also, in data set [3], the IC10 amounted to 0.892 µM and the IC50 amounted to 2840 nM.

On to `C[C@H]1CC[C@H](N2CC(=O)N(Cc3ccc(F)c(F)c3)C3(CN(C=O)C3)C2=O)CC1` [Compound 4, 5-(3,4-difluorobenzyl)-8-((1r,4r)-4-methylcyclohexyl)-6,9-dioxo-2,5,8-triazaspiro[3.5]nonane-2-carbaldehyde], for which the half-life in data set [1] was 572 min. Moreover, in data set [2], the “Projected CL” value was found to be 1.84 mL/min/kg, the “Projected Vss” value is on record as 4.51 L/kg and the “Projected t½” value worked out at 28.3 h. In data set [3], this compound showed an IC10 of 0.284 µM and an IC50 of 2760 nM.

In data set [3], `C[C@H]1CC[C@H](N2CC(=O)N(Cc3ccc(F)c(F)c3)C3(CN(C(N)=O)C3)C2=O)CC1` [Compound 5, 5-(3,4-difluorobenzyl)-8-((1r,4r)-4-methylcyclohexyl)-6,9-dioxo-2,5,8-triazaspiro[3.5]nonane-2-carboxamide] came in with an IC10 of 1.17 µM and a 50% inhibitory concentration (IC50) of 4440 nM.

In the case of `CC(C)N1CC(=O)N(Cc2ccc(Cl)c(F)c2)C2(CN(c3cccnn3)C2)C1=O` [Compound 8, 5-(4-chloro-3-fluorobenzyl)-8-isopropyl-2-(pyridazin-3-yl)-2,5,8-triazaspiro[3.5]nonane-6,9-dione], in data set [3], the IC10 amounted to 0.508 µM and half-maximal inhibition (IC50) required 2250 nM.
